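Assay format: 96-well plates, 48-hour exposure. Here, GI50 denotes the concentration required for 50% inhibition of growth. TGI: total growth inhibition.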

Common to all, as to assay: DTP human tumour cell line panel, 48 h
Assay [1] concerns ACHN renal.
The test system of assay [2] is BT-549 breast.
Assay [3] relates to EKVX NSCLC.
Assay [4] relates to HOP-62 NSCLC.
Assay [5] has as its system NCI-H23 lung.
In assay [6] the test system is PC-3 prostate.
Assay [7] concerns SF-539 CNS.
For assay [8], the system named is SK-MEL-28 melanoma.

Regarding `COc1ccc(-c2c(-c3cc4c(c(OC)c3OC)OCO4)noc2N)cc1`, the GI50 was 1.43 µM in assay [1]; 0.507 µM in assay [2]; 4.12 µM in assay [3]; 0.457 µM in assay [4]; 0.427 µM in assay [5]; 0.321 µM in assay [6]. Further, the figures for the GI50 in assay [7] and in assay [8] were 0.32 µM and 0.459 µM, respectively. Besides, the TGI in assay [1] is more than 100 µM; in assay [2], 17 µM; in assay [3] it was more than 100 µM; in assay [4], more than 100 µM; in assay [5], more than 100 µM; in assay [6] it was more than 100 µM. The TGI in assay [8] was more than 100 µM.

With `CS(=O)(=O)c1nccc(-c2c(-c3cccc(OCc4ccccc4)c3)nc3sccn23)n1`, the GI50 in assay [1] was 36.4 µM; in assay [2], 11.6 µM; in assay [3], 26.4 µM; in assay [4], more than 80.9 µM; in assay [5], 12.8 µM; in assay [6], 6.35 µM. Besides, the GI50 in assay [7] is more than 60.4 µM; in assay [8], 12.2 µM. Further, the TGI is more than 100 µM in assay [1]; more than 100 µM in assay [2]; more than 100 µM in assay [3]; more than 100 µM in assay [4]; more than 100 µM in assay [5]; more than 26.8 µM in assay [6]. Also, the TGI in assay [7] and in assay [8] was more than 100 µM throughout.

For the compound `N#Cc1c(N)n(C2OC(CO)C(O)C2O)c2ncnc(N)c12` (stereo not drawn), the TGI is 0.417 µM in assay [1]; 2.13 µM in assay [2]; more than 100 µM in assay [3]; 2.39 µM in assay [4]; 0.206 µM in assay [5]; 0.578 µM in assay [6]. Besides, the concentration for total growth inhibition (TGI) in assay [7] came to 0.417 µM; in assay [8], 0.432 µM.

`COc1ccc(C(=O)OC2C(OC3C(O)COC(O[C@H]4C[C@H]5[C@@H]6CC=C7C[C@@H](O)CC[C@]7(C)[C@H]6CC[C@]5(C)[C@H]4[C@H](C)C(=O)CCC(C)C)C3OC(=O)C(C)C)OCC(O)C2O)cc1` (stereo partly drawn): the GI50 in assay [1] is 0.111 µM; in assay [2], less than 0.00275 µM; in assay [3], 0.0163 µM; in assay [4] it was 0.0129 µM; in assay [5] it was 0.175 µM; in assay [6] it was 0.00821 µM. Further, the GI50 in assay [7] was less than 0.00275 µM; in assay [8] it was 0.011 µM. In addition, the TGI in assay [1] was determined as 4.82 µM; in assay [2], 3.26 µM; in assay [3], 3.87 µM; in assay [4], 1.45 µM; in assay [5], 4.67 µM; in assay [6], 0.446 µM. Moreover, the TGI worked out at 0.0289 µM in assay [7] and 0.0612 µM in assay [8].

Consider `COc1ccc(Nc2[nH]n(C3=Nc4ccccc4Sc4ccccc43)c(=O)c2C#N)cc1`, for which the GI50 is 1.15 µM in assay [1]; 0.494 µM in assay [2]; 0.781 µM in assay [3]; 3.06 µM in assay [4]; 0.637 µM in assay [5]; 0.676 µM in assay [6]. The results for the GI50 in assay [7] and in assay [8] were 3.37 µM and 3.87 µM, respectively. The TGI is more than 100 µM in assay [1]; 3.4 µM in assay [2]; more than 100 µM in assay [3]; more than 100 µM in assay [4]; 6.64 µM in assay [5]; more than 100 µM in assay [6]. In addition, the TGI was 40.9 µM in assay [7] and more than 100 µM in assay [8].

In the case of `Cc1ccccc1NC(=O)N/C(N)=N/c1nc(C)c(C)s1`, the GI50 is 0.7 µM in assay [1]; 1.14 µM in assay [2]; 0.542 µM in assay [3]; 0.404 µM in assay [4]; 0.519 µM in assay [5]; 0.395 µM in assay [6]. Further, the GI50 in assay [7] was 0.254 µM; in assay [8], 23.7 µM. For the same compound, the TGI is more than 57 µM in assay [1]; more than 100 µM in assay [2]; more than 100 µM in assay [3]; more than 65.6 µM in assay [4]; more than 100 µM in assay [5]; more than 100 µM in assay [6]. For the same compound, the TGI was 4.38 µM in assay [7] and more than 100 µM in assay [8].

Turning to `COc1ccc2c3c(ccc2c1)NC(C(=O)O)CC3` (stereo not drawn), the TGI in assay [1], in assay [2], in assay [3], in assay [4], in assay [5] and in assay [6] was more than 100 µM each time. In addition, the TGI in assay [7] and in assay [8] was more than 100 µM in each case.

Regarding `O=C(/C=C/c1ccccc1)Nc1ncc(Cc2ccccc2)s1`, the 50% growth inhibitory concentration (GI50) was 0.4 µM in assay [1]; 1.17 µM in assay [2]; 0.44 µM in assay [3]; 0.398 µM in assay [4]; 0.562 µM in assay [5]; 0.275 µM in assay [6]. Moreover, the values for the GI50 in assay [7] and in assay [8] were 0.206 µM and 1.7 µM, respectively. In addition, the TGI in assay [1] was 31.4 µM; in assay [2], more than 100 µM; in assay [3], more than 100 µM; in assay [4] it was more than 39 µM; in assay [5], more than 49.1 µM; in assay [6], more than 100 µM. For the same compound, the TGI in assay [7] was 0.732 µM; in assay [8] it was more than 100 µM.

Regarding `CCN(CC)c1ccc(CNc2cc(C)nc3ccc(OC)cc23)cc1`, the GI50 in assay [1] is 2.63 µM; in assay [2], 3.22 µM; in assay [3], 3.14 µM; in assay [4], 7.24 µM; in assay [5], 2.7 µM; in assay [6], 2.82 µM. The GI50 in assay [7] is 2.22 µM; in assay [8], 1.86 µM. Also, the TGI in assay [1] turned out to be 7.17 µM; in assay [2], 10.7 µM; in assay [3] it was 15.3 µM; in assay [4] it was 21 µM; in assay [5] it was 9.8 µM; in assay [6], 13.1 µM. Moreover, the figures for the TGI in assay [7] and in assay [8] were 4.36 µM and 3.38 µM, respectively.

For `O=C(CC(O)c1cccnc1)CC(O)c1cccnc1` (stereo not drawn), the TGI is 35.3 µM in assay [1]; 25.6 µM in assay [2]; 43.8 µM in assay [3]; 50.8 µM in assay [4]; 52 µM in assay [5]; 42.9 µM in assay [6]. Further, the figures for the TGI in assay [7] and in assay [8] were 53.8 µM and 44.2 µM, respectively.

On to `Nc1ncnc2c1ncn2C1OC(CO)CC1O` (stereo not drawn), for which the TGI is more than 100 µM in assay [1]; 92 µM in assay [2]; more than 100 µM in assay [3]; more than 100 µM in assay [4]; more than 100 µM in assay [5]; 40.4 µM in assay [6]. Further, the TGI in assay [7] and in assay [8] was more than 100 µM throughout.

The GI50 is the concentration at which growth is held to half of that of the control. What is called TGI is the concentration at which net growth stops. A lower TGI goes with greater sensitivity of the cells.

These data come from PubChem BioAssay (NCI).
